Data reported in patent publication EP1144412B1, “IMMUNOSUPPRESSIVE EFFECTS OF PTERIDINE DERIVATIVES” (4 AZA Bioscience nv, priority 1998, dated 2000).
Read-outs that look alike come from different tables or passages of the source.

Tests used:
[1] = system: Peripheral blood mononuclear cells (PBMC); test: Mixed lymphocyte reaction (MLR), [3H]-thymidine incorporation; format: cell-based; conditions: Homo sapiens
Text: (§1) Various models may be used for testing an immunosuppressive effect. In vivo, for example, different transplantation models are available. They are strongly influenced by different immunogenicities, depending on the donor and recipient species used and depending on the nature of the transplanted organ. The survival time of transplanted organs can thus be used to measure the suppression of the immune response. In vitro, there exist also various models. The most used are lymphocyte activation tests. Usually activation is measured via lymphocyte proliferation. Inhibition of proliferation thus always means immunosuppression under the experimental conditions applied. There exist different stimuli for lymphocyte activation: • coculture of lymphocytes of […] (MLR = mixed lymphocyte reaction): lymphocytes expressing different minor and major antigens of the HLA-DR type (= alloantigens) activate each other non-specifically. • CD3 assay: here there is an activation of the T-lymphocytes via an exogenously added antibody (OKT3). This antibody reacts against the CD3 molecule located on the lymphocyte membrane. This molecule has a costimulatory function. […] This molecule is also located on the lymphocyte membrane, and delivers strong costimulatory signals.
Peripheral blood mononuclear cells (PBMC) were isolated from heparinized peripheral blood by density gradient centrifugation over Lymphoprep (Nycomed, Maorstua, Norway). Allogeneic PBMC or EBV-transformed human B cells [RPMI1788 (ATCC name CCL156)] which strongly express B7-1 and B7-2 were used as stimulator cells after irradiation with 30 Gy. MLR was performed in triplicate wells. After 5 days incubation at 37EC, 1 µCi [^3H]-thymidine was added to each cup. After a further 16 hours incubation, cells were harvested and counted in a β-counter.
The percent suppression of proliferation by drugs was counted using the formula Percent inhibition =((cpm + drugs) - cpm Cult. Med)/((cpm - drugs) - cpm Cult. Med.)x 100 [formula]

Highly purified T cells [2] = test: T cell proliferation induced by anti-CD3 mAb + PMA (BrdU incorporation); format: cell-based, Human; conditions: Homo sapiens, T-cell
Text: as §1
(§2) T cells were purified by removing non-T cells. Briefly,monocytes were removed by cold agglutination. The resulting lymphoid cells were further purified by a cell enrichment immunocolumn [Cellect Human T (Biotex, Edmonton, Alberta, Canada)] by a process of negative selection.
(§3) Measurements of T cell proliferations induced by anti-CD3 mAb + PMA or anti-CD28 mAb + PMA
(§4) Highly purified T cells (10^6/ml) were stimulated by immobilized anti-CD3 àr anti-CD28 mAb in the presence of PMA. Anti-CD3 mAb (CLB-CD3; CLB, Amsterdam, The Netherlands) were fixed on the 96-microwell plates by incubating the wells with 50 µl of mAb solution (1/800 dilution in culture medium). Anti-CD28 mAb (CLB-CD28; CLB, Amsterdam, The Netherlands) 50 µl (1/650 dilution in culture medium) was added directly to the wells. Further, 20 µl PMA (Sigma, St. Louis, MO, USA) solution (final concentration: 0.5 ng/ml) was added. Subsequently, 20 µl of immunosuppressants were added by serial dilution in triplicate wells. Finally 100 µl of the T cell suspension (10^6/ml) was added. After 48-hour incubation at 37EC in 5% CO2 20 Φl BrdU (100 ΦM solution) (Cell Proliferation Elisa, Boehringer-Mannheim Belgium) was added to each well. After a further overnight incubation the T cell proliferation was measured using a colorimetric immunoassay for qualification of cell proliferation based on measurements of the incorporation of BrdU during DNAsynthesis. The optical density (OD) was measured by a Behring EL311 plate reader at 450 nm (reference wavelength: 690 nm). The percent suppression of proliferation by drugs was counted using the formula: Per cent inhibition =((OD + drugs) - (OD Cult. Med.))/((OD - drugs) - (OD Cult. Med.))x 100 [formula]

Highly purified T cells [3] = test: T cell proliferation induced by anti-CD28 mAb + PMA (BrdU incorporation); format: cell-based, Human; conditions: Homo sapiens, T-cell
Text: as §1, §2, §3, §4

[4] = Table IV, known pteridine derivatives, IC50 subranges, read-out: MLR
[5] = Table IV, known pteridine derivatives, IC50 subranges, read-out: aCD3
[6] = Table IV, known pteridine derivatives, IC50 subranges, read-out: aCD28
[7] = Table II, read-out: IC50 in µM of pteridine derivative MLR
[8] = untitled structure table, no unit printed there, same values in Table II as IC50 in µM, read-out: MLR
[9] = Table II, read-out: IC50 in µM of pteridine derivative ACD3
[10] = untitled structure table, no unit printed there, same values in Table II as IC50 in µM, read-out: aCD3
[11] = Table II, read-out: IC50 in µM of pteridine derivative aCD28
[12] = untitled structure table, no unit printed there, same values in Table II as IC50 in µM, read-out: aCD28

Compound | IC50 [1, 7] [µM] | IC50 [1, 8] [µM] | IC50 (Highly purified T cells [2]; [9]) [µM] | IC50 (Highly purified T cells [2]; [10]) [µM] | IC50 (Highly purified T cells [3]; [11]) [µM] | IC50 (Highly purified T cells [3]; [12]) [µM] | also measured
CC(C)C(=O)NCc1cnc2nc(N)nc(N)c2n1 [CH2 NH CO CH (CH3)2, reference compound] | – | – | – | – | – | – | IC50 [1, 4]: > 151 µM; IC50 (Highly purified T cells [2]; [5]): > 151 µM; IC50 (Highly purified T cells [3]; [6]): > 151 µM
CCCOCc1cnc2nc(N)nc(N)c2n1 [CH2 O CH2CH2CH3, reference compound] | – | – | – | – | – | – | IC50 [1, 4]: > 151 µM; IC50 (Highly purified T cells [2]; [5]): > 151 µM; IC50 (Highly purified T cells [3]; [6]): > 151 µM
COCc1cnc2nc(N)nc(N)c2n1 [CH2 O CH3, reference compound] | – | – | – | – | – | – | IC50 [1, 4]: > 151 µM; IC50 (Highly purified T cells [2]; [5]): > 151 µM; IC50 (Highly purified T cells [3]; [6]): > 151 µM
CSCc1cnc2nc(N)nc(N)c2n1 [CH2 S CH3, reference compound] | – | – | – | – | – | – | IC50 [1, 4]: > 151 µM; IC50 (Highly purified T cells [2]; [5]): > 151 µM; IC50 (Highly purified T cells [3]; [6]): > 151 µM
CN(C)Cc1cnc2nc(N)[nH]c(=O)c2n1 [CH2N(CH3)2, reference compound] | – | – | – | – | – | – | IC50 [1, 4]: > 151 µM; IC50 (Highly purified T cells [2]; [5]): > 151 µM; IC50 (Highly purified T cells [3]; [6]): > 151 µM
CNCc1cnc2nc(N)[nH]c(=O)c2n1 [CH2NHCH3, reference compound] | – | – | – | – | – | – | IC50 [1, 4]: > 151 µM; IC50 (Highly purified T cells [2]; [5]): > 151 µM; IC50 (Highly purified T cells [3]; [6]): > 151 µM
CCOCc1cnc2nc(N)[nH]c(=O)c2n1 [CH2OC2H5, reference compound] | – | – | – | – | – | – | IC50 [1, 4]: > 151 µM; IC50 (Highly purified T cells [2]; [5]): > 151 µM; IC50 (Highly purified T cells [3]; [6]): > 151 µM
CSCc1cnc2nc(N)[nH]c(=O)c2n1 [CH2S CH3, reference compound] | – | – | – | – | – | – | IC50 [1, 4]: > 151 µM; IC50 (Highly purified T cells [2]; [5]): > 151 µM; IC50 (Highly purified T cells [3]; [6]): > 151 µM
CCCCCOc1nc(N)nc2ncc(C=Cc3ccccc3)nc12 [Compound 1, 2-amino-4-pentoxy-6-styrylpteridine] | 15 | 15 | 110 | 110 | 80 | 80 | –
CCCCCOc1nc(N)nc2ncc(C(Br)C(Br)c3ccccc3)nc12 (centres unmarked) [Compound 2, 2-amino-4-n-pentoxy-6-(1,2-dibromo-2-phenylethyl)pteridine] | 12 | 12 | 4 | 4 | 12 | 12 | –
COc1nc2nc(N)nc(OC)c2nc1C=Cc1ccccc1 [Compound 3, 2-amino-4-methoxy-6-styryl-7-methoxypteridine] | 25 | 25 | 160 | 160 | 100 | 100 | –
COc1nc(N)nc2ncc(C(O)C(C)O)nc12 (centres unmarked) [Compound 4, 2-amino-4-methoxy-6-(1,2-dihydroxypropyl)pteridine] | > 200 | > 200 | 140 | 140 | 110 | 110 | –
Nc1nc(N)c2nc(-c3ccccc3)cnc2n1 [Compound 5, 2,4-diamino-6-phenyl pteridine] | > 200 | > 200 | > 200 | > 200 | > 200 | > 200 | –
O=c1[nH]cc(F)c(=O)[nH]1 [Compound 5-FU, 5-Fluoro-uracil, reference compound] | – | – | – | – | – | – | IC50 (Highly purified T cells [2]; Table III, comparison immunosuppressants, read-out: IC50 aCD3): 50 µM; IC50 (Highly purified T cells [3]; Table III, comparison immunosuppressants, read-out: IC50 aCD28): 17 µM
Cc1nc2nc(N)nc(N)c2nc1-c1ccccc1 [Compound 6, 2,4-diamino-6-phenyl-7-methylpteridine] | > 200 | > 200 | > 200 | > 200 | > 200 | > 200 | –
Cc1ccc(-c2cnc3nc(N)nc(N)c3n2)cc1 [Compound 7, 2,4-diamino-6-(4-tolyl)pteridine] | > 200 | > 200 | 110 | 110 | 25 | 25 | –
COc1ccc(-c2cnc3nc(N)nc(N)c3n2)cc1 [Compound 8, 2,4-diamino-6-(4-methoxyphenyl)pteridine] | 150 | > 150 | 125 | 125 | 22 | 22 | –
Nc1nc(N)c2nc(-c3ccc(Cl)cc3)cnc2n1 [Compound 9, 2,4-diamino-6-(4-chlorophenyl)pteridine] | 125 | 125 | 110 | 110 | 110 | 110 | –
Nc1nc(NCCO)nc2ncc(-c3ccccc3)nc12 [Compound 10, 2-hydroxyethylamino-4-amino-6-phenylpteridine] | 125 | 125 | 125 | 125 | 125 | 125 | –
Cc1ccc(-c2cnc3nc(NCCO)nc(N)c3n2)cc1 [Compound 11, 2-hydroxyethylamino-4-amino-6-(4-tolyl)pteridine] | > 200 | > 200 | 200 | 200 | 160 | 160 | –
COc1ccc(-c2cnc3nc(NCCO)nc(N)c3n2)cc1 [Compound 12, 2-hydroxyethylamino-4-amino-6-(4-methoxyphenyl)pteridine] | > 200 | > 200 | > 200 | > 200 | 160 | 160 | –
Nc1nc(NO)c2nc(-c3ccccc3)cnc2n1 [Compound 13, 2-amino-4-hydroxylamino-6-phenylpteridine] | 140 | 140 | > 200 | > 200 | > 200 | > 200 | –
CN(C)c1nc(N)nc2ncc(-c3ccccc3)nc12 [Compound 14, 2-amino-4-dimethylamino-6-phenylpteridine] | 5 | 5 | 15 | 15 | 15 | 15 | –
Cc1ccc(-c2cnc3nc(N)nc(N(C)C)c3n2)cc1 [Compound 15, 2-amino-4-dimethylamino-6-(4-tolyl)pteridine] | 3.6 | 3.6 | 4.5 | 4.5 | 3.9 | 3.9 | –
COc1ccc(-c2cnc3nc(N)nc(N(C)C)c3n2)cc1 [Compound 16, 2-amino-4-dimethylamino-6-(4-methoxyphenyl)pteridine] | 12 | 12 | 7.5 | 7.5 | 7.5 | 7.5 | –
COCCOCc1cnc2nc(N)nc(N)c2n1 [Compound 17, 2,4-diamino-6-methoxyethoxymethyl pteridine] | > 200 | > 200 | 180 | 180 | 18 | 18 | –
CCCNc1nc(N)nc2ncc(-c3ccc(OC)c(OC)c3)nc12 [Compound 63, 2-amino-4-propylamino-6-(3,4-dimethoxyphenyl)pteridine] | – | – | – | – | – | – | IC50 ([1]; untitled structure table, IC50 subranges, read-out: MLR): < 1 µM
CCOc1nc(N)nc2ncc(-c3ccc(OC)c(OC)c3)nc12 [Compound 66, 2-amino-4-ethoxy-6-(3,4-dimethoxyphenyl)pteridine] | – | – | – | – | – | – | IC50 (Highly purified T cells [2]; untitled structure table, IC50 subranges, read-out: aCD3): < 1 µM; IC50 (Highly purified T cells [3]; untitled structure table, IC50 subranges, read-out: aCD28): < 1 µM
